Source: patent US5863773A, “Antifungal corynecandin” (Abbott Laboratories, priority 1997, dated 1999)
Values after ≈ are worked out from the molar mass of the structure shown. Numbered stars: 1 amine (or outer) side, 2 acyl side, 3 side chain; on linkers, the order of the positions; unused ones are H or OH. Bridge positions count the residues as written; N and C are the ends. Square brackets hold non-standard residues; d marks the D form. Peptide text beside a SMILES is read from it. * marks the point of attachment. Orn(4R-OH,5R-OH) = O=C([C@H](C[C@@H](O)[C@@H](O)N[*:3])N[*:1])[*:2]; hTyr(3S-OH,4S-OH) = N[C@H](C(=O)O)[C@H](O)[C@@H](O)c1ccc(O)cc1; Pro(3S-OH,4S-Me) = C[C@H]1CN[C@H](C(=O)O)[C@H]1O; Benzoyl(4-octyloxy) = CCCCCCCCOc1ccc(C(=O)*)cc1; Hyp = O=C(O)[C@@H]1C[C@@H](O)CN1

Columns and labels:
[1] = test system: fungal organisms; assay: Microtiter broth dilution assay of antifungal activity (MIC) in the presence and absence of 0.8M sorbitol; assay type: cell-based; settings: for Broth Dilution Assay MIC at 2 day growth, with sorbitol: with 0.8M sorbitol; for Broth Dilution Assay MIC at 2 day growth, with sorbitol / Broth Dilution Assay MIC at 2 day growth, w/o sorbitol: final concentration of cells 2 × 10^5 organisms/ml; for Broth Dilution Assay MIC at 2 day growth, w/o sorbitol: without sorbitol; for MIC: 48 h, read-out: Broth Dilution Assay MIC at 2 day growth, w/o sorbitol
Procedure: Minimal inhibitory concentrations (MICs) of corynecandin related compounds in the microtiter broth dilution in the presence and absence of 0.8M sorbitol assay were determined by a broth dilution assay described by Frost, D., Brandt, K., Cugier, D., and Goldman, R. in J. Antibiotics 48: 306-310 (1995), which is incorporated herein by reference.
^a Assay conducted as described in Frost et al., ibid, except final
concentration of cells was 2 × 10^5 organisms/ml.

[2] = biological target: T1, (1,3)-β-Glucan Synthase (Candida albicans, UniProt A0A1D8PCT0); assay: In vitro inhibition of (1,3)-β-glucan synthase activity; assay type: biochemical
T1 construct: integral plasma membrane protein
T1 sequence (A0A1D8PCT0 1-1897): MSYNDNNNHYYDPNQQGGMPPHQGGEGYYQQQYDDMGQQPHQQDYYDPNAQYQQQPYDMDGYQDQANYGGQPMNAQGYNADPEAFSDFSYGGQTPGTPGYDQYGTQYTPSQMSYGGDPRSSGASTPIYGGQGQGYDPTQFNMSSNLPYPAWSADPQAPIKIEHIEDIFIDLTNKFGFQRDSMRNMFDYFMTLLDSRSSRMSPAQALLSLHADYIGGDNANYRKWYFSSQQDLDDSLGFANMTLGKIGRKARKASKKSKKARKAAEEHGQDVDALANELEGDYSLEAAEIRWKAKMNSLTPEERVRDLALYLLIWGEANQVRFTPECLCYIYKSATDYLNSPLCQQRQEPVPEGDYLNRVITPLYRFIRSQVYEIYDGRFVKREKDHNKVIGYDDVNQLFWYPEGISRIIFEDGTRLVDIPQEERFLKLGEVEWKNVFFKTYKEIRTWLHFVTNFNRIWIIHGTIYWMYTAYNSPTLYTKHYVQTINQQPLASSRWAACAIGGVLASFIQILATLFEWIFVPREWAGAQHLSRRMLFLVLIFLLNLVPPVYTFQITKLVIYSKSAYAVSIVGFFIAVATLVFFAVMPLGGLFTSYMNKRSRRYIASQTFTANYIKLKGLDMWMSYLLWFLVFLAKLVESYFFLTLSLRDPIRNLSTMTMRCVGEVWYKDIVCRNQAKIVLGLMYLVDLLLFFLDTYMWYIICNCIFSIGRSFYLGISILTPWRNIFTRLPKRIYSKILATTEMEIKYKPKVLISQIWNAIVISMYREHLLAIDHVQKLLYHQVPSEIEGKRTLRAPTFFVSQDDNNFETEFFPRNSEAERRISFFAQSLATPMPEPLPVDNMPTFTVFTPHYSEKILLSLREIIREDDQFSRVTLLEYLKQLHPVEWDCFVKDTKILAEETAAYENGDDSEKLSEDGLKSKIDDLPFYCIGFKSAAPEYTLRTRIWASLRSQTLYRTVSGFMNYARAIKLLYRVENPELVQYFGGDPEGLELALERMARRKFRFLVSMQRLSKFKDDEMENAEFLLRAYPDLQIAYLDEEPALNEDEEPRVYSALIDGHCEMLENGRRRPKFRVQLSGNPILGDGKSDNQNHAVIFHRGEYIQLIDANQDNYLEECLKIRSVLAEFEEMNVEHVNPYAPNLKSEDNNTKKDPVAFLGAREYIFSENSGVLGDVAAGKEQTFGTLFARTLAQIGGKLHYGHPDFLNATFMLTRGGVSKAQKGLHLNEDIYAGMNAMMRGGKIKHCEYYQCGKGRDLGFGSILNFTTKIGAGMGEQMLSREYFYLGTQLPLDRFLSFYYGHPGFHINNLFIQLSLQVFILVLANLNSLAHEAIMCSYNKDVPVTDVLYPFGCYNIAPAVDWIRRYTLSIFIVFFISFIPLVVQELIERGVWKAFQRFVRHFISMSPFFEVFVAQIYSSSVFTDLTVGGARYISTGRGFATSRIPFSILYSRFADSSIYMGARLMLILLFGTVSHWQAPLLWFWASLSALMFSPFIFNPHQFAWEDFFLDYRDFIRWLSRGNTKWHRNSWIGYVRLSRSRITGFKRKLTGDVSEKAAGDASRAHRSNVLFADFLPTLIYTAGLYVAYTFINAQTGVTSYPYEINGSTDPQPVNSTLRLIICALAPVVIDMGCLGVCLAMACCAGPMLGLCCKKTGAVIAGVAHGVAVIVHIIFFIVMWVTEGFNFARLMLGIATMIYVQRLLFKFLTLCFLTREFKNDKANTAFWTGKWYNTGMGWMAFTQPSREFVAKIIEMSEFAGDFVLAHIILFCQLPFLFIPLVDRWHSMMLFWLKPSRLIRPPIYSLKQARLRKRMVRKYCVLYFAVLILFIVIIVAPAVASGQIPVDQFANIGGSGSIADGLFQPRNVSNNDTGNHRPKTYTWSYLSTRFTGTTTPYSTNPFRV
T1 sequence (O42825 1-195 partner): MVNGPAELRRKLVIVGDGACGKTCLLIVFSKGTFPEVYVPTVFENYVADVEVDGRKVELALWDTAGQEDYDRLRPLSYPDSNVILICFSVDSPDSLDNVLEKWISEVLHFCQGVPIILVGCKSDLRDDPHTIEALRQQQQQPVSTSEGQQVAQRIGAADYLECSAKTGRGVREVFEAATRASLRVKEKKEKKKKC
Source text: The fungal cell wall serves as a protective barrier and is essential for viability in a hypotonic environment. (1,3)-β-Glucan is a component of the Candida albicans cell wall, and the enzyme that biosynthesizes this polymer, glucan synthase, is not present in higher eukaryotes. (Glucan synthase is an integral plasma membrane protein that catalyzes polymerization of uridine diphosphate-glucose (UDP-Glc) into β-glucan.) Accordingly, glucan synthase represents an ideal target for the development of antifungal agents.
The assay was conducted as described by Frost, D., Brandt, K. Capobioanco, and Goldman, R., Microbiology 140: 2239-2246 (1994) which is incorporated herein by reference.

Row | Compound | Broth Dilution Assay MIC at 2 day growth, with sorbitol [1] | Broth Dilution Assay MIC at 2 day growth, w/o sorbitol [1] | In Vitro Inhibition of (1,3)-β-Glucan Synthase Activity IC50 [2] | MIC [1] | Rescue of cell growth by sorbitol ([1]; cells treated with compound, sorbitol present)
1 | CCC(O)/C=C/C=C/C=C/C(=O)OC[C@H]1O[C@@H](O[C@H]2[C@H](OC(=O)/C=C/C=C/CC(O)/C(C)=C/C=C/CCC(C)CC)[C@@H](O)[C@@]3(OCc4cc(O)cc(O)c43)O[C@@H]2CO)[C@H](O)[C@@H](O)[C@H]1O (stereo partly shown) [Papulacandin B] | > 250000 µg/mL | 1960 µg/mL | 1.9 µg/mL | – | –
2 | Fusacandin | > 250000 µg/mL | 1960 µg/mL | 25.0 µg/mL | – | –
3 | CCCCC/C=C\C=C\C(=O)OC[C@H]1O[C@@H](O[C@H]2[C@H](OC(=O)/C(C)=C/C=C/CC(O)C(C)CC)[C@@H](O)[C@H](c3c(O)cc(O)cc3CO)O[C@@H]2CO)[C@H](O)[C@@H](O)[C@H]1O (stereo partly shown) [Corynecandin] | – | – | – | 980 µg/mL (≈ 1210 µM) | Sorbitol could rescue the growth of cells
4 | CCCCCCCCOc1ccc(C(=O)N[C@H]2C[C@@H](O)[C@@H](O)NC(=O)[C@@H]3[C@@H](O)[C@@H](C)CN3C(=O)[C@H]([C@@H](C)O)NC(=O)[C@H]([C@H](O)[C@@H](O)c3ccc(O)cc3)NC(=O)[C@@H]3C[C@@H](O)CN3C(=O)[C@H]([C@@H](C)O)NC2=O)cc1 [Cilofungin] ({Benzoyl(4-octyloxy)}-[Orn(4R-OH,5R-OH)]T[Hyp][hTyr(3S-OH,4S-OH)]T[Pro(3S-OH,4S-Me)]; lactam 1-C) | – | – | – | 980 µg/mL (≈ 951 µM) | –
5 | C[C@@H]1[C@H](O)[C@@H](C)/C=C/C=C/C=C/C=C/C=C/C=C/C=C/[C@H](O[C@@H]2O[C@H](C)[C@@H](O)[C@H](N)[C@@H]2O)C[C@@H]2O[C@](O)(C[C@@H](O)C[C@@H](O)[C@H](O)CC[C@@H](O)C[C@@H](O)CC(=O)O[C@H]1C)C[C@H](O)[C@H]2C(=O)O [Amphotericin B] | – | – | – | 480 µg/mL (≈ 519 µM) | –
